Measured values: patent US9907791B2, “Ron inhibitors for use in preventing and treating bone loss” (UNIVERSITY OF UTAH RESEARCH FOUNDATION, priority 2014, dated 2018)

What was measured:
PyMT-MSP tumor cells = assay: Intratibial PyMT-MSP tumor-induced osteolysis; format: in vivo, mice
From the text: All procedures involving mice and experimental protocols were approved by the Institutional Animal Care and Use Committee (IACUC) of the University of Utah. The RonTK−/− mice which reside on the FVB background, were crossed with NOD.SCID mice for an immune-compromised mouse model. As a control, wild-type FVB mice were also crossed with NOD.SCID mice. The STK−/− mice, which are on a C57BL/6 background, were compared to wild-type C57BL/6 mice as controls. Mice for all experiments were 6 to 8 weeks of age. For intratibial injections, 1×10^5 (PyMTor DU4475) or 3×10^5 (MDA-MB-231) tumor cells were resuspended in 10 μL matrigel and injected into the right tibia of anesthetized female FVB (PyMT) or NOD.SCID mice carrying various alleles of RON. Osteolysis was assessed by X-ray radiography. Dissected hindlimbs from mice sacrificed at the final time point in each experiment were placed in the Kodak In-vivo Multispectral Imaging System FX and exposed to X-ray radiography at 35 kV for 100 sec. Excess tumor tissue was removed from the bones prior to X-ray. Osteolytic lesions were quantified using Image J software (NCBI). All images were compared to the contralateral leg as an internal control.
Hindlimb bones were excised from mice at the time of sacrifice and bones were fixed in 10% neutral-buffered formalin, decalcified in Formical-2000 (Decal Corporation, Tallman, N.Y.) for 8 days and embedded in paraffin for hematoxylin and eosin (H & E) or immunohistochemical staining. Osteoclast number was assessed as TRAP^+ multinucleated cells containing 4 or more nuclei and reported as TRAP^+ cells per field. Three sections per mouse and 5 fields per section were used for quantification with fields representing the entire length of the tibia. Tumor proliferation rate was reported as the number of cells which were positive for phospho-H3 staining compared to the number of unstained cells per field expressed as a percent. Three sections per mouse and 5 fields per section were used for quantification with analysis being restricted to within the bone marrow cavity. Immunohistochemical analysis was performed with heat-induced antigen retrieval in sodium-citrate buffer (Dako, Denmark). Primary antibodies used were anti-TRAP at 1:50 (Santa Cruz, sc-30833, Dallas, Tex.), anti-Ki67 at 1:100 (Santa Cruz, sc-12202S, Dallas, Tex.), anti-phosphoH3 at 1:100 (Cell Signaling, #9701, Beverly, Mass.), anti-NFATc1 at 1:50 (Santa Cruz, sc-13033, Dallas, Tex.), and anti-RON at 1:250 (Santa Cruz, sc-322, Dallas, Tex.). Bones from mice lacking RON were used as a negative control. Biotinylated secondary antibody was used with the EnVision^+ system HRP kit (Dako, Denmark) and nuclei counterstained with hematoxylin.
For in vivo experiments, the OSI-296 inhibitor was dissolved in 40% Trappsol with 0.01 M HCl, and mice were treated at a concentration of 200 mg/kg daily by oral gavage. Treatment began either 3 days after tumor cell injection for prophylactic experiments, or 3 weeks after tumor cell injection for therapeutic experiments. ASLAN002 was dissolved in 70% PEG400 with 1×PBS and mice were treated at a concentration of 50 mg/kg daily by oral gavage. muRANK-Fc was given at a concentration of 10 mg/kg every three days by intra-peritoneal injection. For the osteoporosis study, mice were treated beginning on the day after ovary removal. The treatment regimen for OSI-296 was 200 mg/kg every other day by oral gavage. ASLAN002 was administered at 50 mg/kg every other day by oral gavage. Treatment continued until the time of sacrifice at 28 days.

[1] = Human plasma CTX levels, Phase I patients; format: in vivo
From the text: All samples were de-identified and the experiments were approved by the University of Utah Institutional Review Board. Plasma samples were submitted to ARUP for clinical testing of CTX. For BSAP, the Human Bone Panel I capture plate with the Human Alkaline Phosphatase detection kit was utilized (Meso Scale Discovery, Rockville, Md.; […]-2) to measure BSAP levels in undiluted plasma samples per the manufacturer's protocol. ASLAN002 is currently in Phase I testing as an anti-cancer agent (NCT01721148). Regardless of cancer diagnosis, and even in the absence of bone metastasis, RON inhibition might affect normal bone turnover, especially in postmenopausal women due to their high rate of bone loss. Plasma samples from early cohorts of Phase I patients were examined for evidence of bone turnover at baseline and after treatment with ASLAN002, using a standard clinical test to detect cleaved bone-derived collagen in plasma (beta-cross-linked C-telopeptide, or CTX). […] Shown in FIG. 15A is quantification of the percent change in plasma CTX levels (compared to baseline prior to drug treatment) in blood plasma of patients receiving ASLAN002 in the Phase I clinical trial. Most patients received ASLAN002 for 28 days; the exceptions in duration are noted (*15 days and ^84 days). Dark bars represent males, and light bars represent females. […] In this analysis, all subjects except one were >50 years old; women older than 50 were expected to have the greatest amount of physiologic bone turnover due to menopause. None of the patients analyzed were treated concurrently with anti-osteoporotic agents. […] Shown in FIG. 15B is quantification of the percent change in BSAP levels (compared to baseline) in blood plasma of patients receiving ASLAN002. The patients are the same as those shown in FIG. 15A, except those receiving only 15 days of ASLAN002 were not tested for BSAP. Dark bars represent males, and light bars represent females. Note that these patients were not selected based on a diagnosis of bone metastasis; rather, markers of bone turnover in patients with various cancer diagnoses who participated in the Phase I trial of ASLAN002 were simply assessed.

[2] = Ovariectomy-induced bone loss (osteoporosis study); format: in vivo; settings: WT OVX mice, treatment from 1 day post-ovariectomy, analysis at 28 days
From the text: Representative samples were imaged by micro-computed tomography (μCT, Skyscan) with volume rendering snapshots of the tibia. For the osteoporosis study, representative samples were imaged and presented as volume rendering snapshots of the axial view of the tibial metaphysis region. For bone mineral density (BMD) measurements, the right tibia was removed and fixed in 10% NBF overnight. The tibia were then scanned by dual-energy X-ray absorptiometry (DXA) using a Norland pDEXA densitometer (Norland Medical Systems, White Plains, N.Y.). A region including the primary and secondary spongiosa was used to determine the BMD of the tibia. […] For the osteoporosis study, mice were treated beginning on the day after ovary removal. The treatment regimen for OSI-296 was 200 mg/kg every other day by oral gavage. ASLAN002 was administered at 50 mg/kg every other day by oral gavage. Treatment continued until the time of sacrifice at 28 days. […] To investigate the role of the MSP/RON pathway in bone loss due to post-menopausal osteoporosis, ovariectomies were performed in WT and RonTK−/− mice and bone loss was analyzed by dual-energy X-ray absorptiometry (DXA) and bone histomorphometry 28 days later. […] WT OVX mice were treated with ASLAN002 beginning 1 day post-ovariectomy. Mice were sacrificed 28 days post-ovariectomy for analysis.

CCOc1ccn(-c2ccc(F)cc2)c(=O)c1C(=O)Nc1ccc(Oc2ccnc(N)c2Cl)c(F)c1 [ASLAN002]
inhibition of osteolysis (PyMT-MSP tumor cells; PyMT-MSP tumors, treatment beginning three days after tumor injection, average): 6-10 fold
PyMT-MSP tumor growth in the bone (PyMT-MSP tumor cells; caliper measurements): trend in decreased growth, but did not reach statistical significance
women showing ≧25% decreases in CTX ([1]; 7/10 women): 70%
patients exhibiting decreased CTX levels ([1]; 11/18 Phase I patients, most 28 days of treatment): 61%
men showing ≧25% decreases in CTX ([1]; number of men out of all men): 0/8
patients with decreased CTX that had ≧25% reduction ([1]; of the patients with decreased CTX, Mayo clinic response guideline): 64%
bone loss after ovary removal [2]: completely prevented bone loss
